Source: patent US9085750B2, “Stabilized subtilisin composition” (Novozymes A/S, priority 2011, dated 2015)

Key:
Type in all cases: biochemical
[1] = target: T1, subtilisin (Savinase 16L) (Lederbergia lenta, UniProt P29600); assay: Remaining protease activity of Savinase 16L after storage in the Table 1 detergent (hydrolysis of N,N-dimethylcasein); details: one week at 40° C.
T1 construct: purchased Novozymes A/S Savinase 16L
T1 sequence (P29600 1-269): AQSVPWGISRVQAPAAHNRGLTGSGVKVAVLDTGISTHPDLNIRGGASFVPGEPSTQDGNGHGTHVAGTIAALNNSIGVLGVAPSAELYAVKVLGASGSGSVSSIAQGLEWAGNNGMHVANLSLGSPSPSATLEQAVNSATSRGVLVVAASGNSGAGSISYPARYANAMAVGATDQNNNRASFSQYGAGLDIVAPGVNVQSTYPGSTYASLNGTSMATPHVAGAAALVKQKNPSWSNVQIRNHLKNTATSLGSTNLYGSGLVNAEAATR
Experimental: (§1) General experimental details: Detergents with a subtilisin (Savinase 16L) and a lipase (Lipex 100L) with or without X—B^1—NH—CHR—CHOH—SO3Na (the peptide aldehyde hydrosulfite adduct can be added separately to the detergent containing the subtilisin) are placed in closed glasses at −18° C.; 35° C. and 40° C. Residual activities of protease and lipase are measured after different times using standard analytical methods (protease by hydrolysis of N,N-dimethylcasein at 40° C., pH 8.3 and lipase by hydrolysis of pNp-valerate at 40° C., pH 7.7). Similar trials can be made with addition of subtilisin to a detergent already containing suitable amounts of the peptide aldehyde hydrosulfite adduct. Similar results can be obtained with all the mentioned peptide aldehyde bisulfite adducts.
As an example of detergent composition with a stabilized subtilisin formulation, the composition described in Table 1 was made.
In Table 2 are shown the results obtained with X=Cbz-Gly; B^1=Ala; R═—CH2-p(C6H4)—OH; stability measured after one week incubation at 40° C. in the detergent described in Table 1.

[2] = target: T2, Subtilisin: Savinase (Lederbergia lenta, UniProt P29600); assay: Remaining subtilisin activity after storage in the Table 3 detergent; details: 2 weeks at 35° C.
T2 construct: purchased Novozymes A/S Savinase 16L
T2 sequence (P29600 1-269): T1 sequence (P29600 1-269)
Experimental: as §1
(§2) As an example of a detergent composition with a stabilized subtilisin formulation, the composition described in Table 3 was made.
(§3) In Table 4 are shown the results measured after two weeks incubation at 35° C. in the detergent described in Table 3.

[3] = system: Lipase: Lipex 100L; assay: Remaining lipase activity after storage with subtilisin in the Table 3 detergent (hydrolysis of pNp-valerate); details: 2 weeks at 35° C.
Experimental: as §1, §2, §3

[4] = system: Subtilisin Coronase 48L; assay: Remaining subtilisin activity after storage in the Table 5 detergent, Coronase 48L; details: 59 ppm inhibitor in detergent of Table 5
Experimental: as §1
(§4) As yet another example of a detergent with a stabilized subtilisin formulation, the composition described in Table 5 was made.
(§5) In Table 6 are shown the results measured after 4 weeks incubation at 37° C., and after 8 weeks incubation at 30° C., in the detergent described in Table 5.

[5] = system: Subtilisin Liquanase 2.5L; assay: Remaining subtilisin activity after storage in the Table 5 detergent, Liquanase 2.5L; details: 34 ppm inhibitor in detergent of Table 5
Experimental: as §1, §4, §5

[6] = system: Lipase: Lipoclean 2000L; assay: Remaining lipase activity after storage with subtilisin in the Table 5 detergent
Experimental: as §1, §4, §5

| Compound | Protease stability (remaining activity) ([1]; 7 ppm inhibitor in detergent of Table 1) [%] | Protease stability (remaining activity) ([1]; 14 ppm inhibitor in detergent of Table 1) [%] | Protease stability (remaining activity) ([1]; 18 ppm inhibitor in detergent of Table 1) [%] | Remaining activity of Subtilisin (protease) ([2]; 21 ppm inhibitor in detergent of Table 3) [%] | Remaining activity of Lipase ([3]; 21 ppm inhibitor in detergent of Table 3 with Savinase) [%] | Remaining activity of Subtilisin, 4 weeks at 37° C. [4] [%] | Remaining activity of Subtilisin, 4 weeks at 37° C. [5] [%] | Remaining activity of Lipase, 8 weeks at 30° C. ([6]; with Coronase 48L, 59 ppm inhibitor in detergent of Table 5) [%] | Remaining activity of Lipase, 8 weeks at 30° C. ([6]; with Liquanase 2.5L, 34 ppm inhibitor in detergent of Table 5) [%] | remaining activity at 128 ppm ([2]; 128 ppm inhibitor in detergent of Table 3, read-out: Remaining activity of Subtilisin (protease)) [%] | Remaining activity of Lipase ([3]; 128 ppm inhibitor in detergent of Table 3 with Savinase) [%] |
| --- | --- | --- | --- | --- | --- | --- | --- | --- | --- | --- | --- |
| C[C@H](NC(=O)CNC(=O)OCc1ccccc1)C(=O)N[C@@H](Cc1ccc(O)cc1)C(O)S(=O)(=O)[O-].[Na+] (some centres unmarked) [Cbz-GA-NHCH(CH2C6H4OH)C(OH)(SO3M)-H] | 52 | 77 | 80 | 63 | 18 | 80 | 83 | 61 | 27 |  |  |
| O=Cc1ccc(B(O)O)cc1 [4-formylphenyl boronic acid, reference compound] |  |  |  |  |  |  |  |  |  | 8 | 2 |
